Measurements: patent publication US5310762A, “Medicaments” (Burroughs Wellcome Co., priority 1988, dated 1994)

Experiments:
Pneumocystis carinii = assay: Activity against Pneumocystis carinii: treatment of latent infection in dexamethasone-treated rats; assay type: in vivo; settings: weeks 5-7; for SCORE 2 (number of rats): 2+: focal areas of pneumonitis surrounded by 10 to 25 h.p.f. of normal lung; for SCORE 3 (number of rats): 3+: lung diffusely and extensively involved; for SCORE 4 (number of rats): score 4 not defined; for SCORE 0 (number of rats): score none: no organism seen; for SCORE 1 (number of rats): 1+: cysts sparsely distributed, less than one per 25 h.p.f.
Experimental: Groups of 10 rats were treated with dexamethasone to allow latent Pneumocystis carinii infection to develop. Tetracycline was also administered to protect against bacterial infections. […] In parallel with each test compound, Celacol was administered to one group of rats (also treated with dexamethasone and tetracycline) as a control. At the end of the test period the animals were sacrificed and autopsies carried out. The lungs were removed and the right lung bisected. An imprint was made onto microscope slides and stained with toluidine blue. One half of the lung was placed in formalin, processed in paraffin blocks, sectioned and stained by the Gomori methanamine silver nitrate method. After autopsy the extent of P. carinii pneumonitis was scored under coded study as none if no organism seen; 1+ if P. carinii cysts seen sparsely distributed with less than one per 25 high power field (h.p.f.); 2+ if focal areas of P. carinii pneumonitis surrounded by 10 to 25 h.p.f. of normal lung and 3+ if lung diffusely and extensively involved with organisms in almost all h.p.f.s.

Water-solubility = assay type: physicochemical; settings: as compared with the corresponding compound wherein R13 is hydroxy
[1] = tested on: Pneumocystis carinii pneumonia; settings: AIDS patients; Wofsy, Antimicrobial Agents Annual 1986; cited from earlier work
[2] = human, in vivo; cited from earlier work

O=C1C(Cl)=C(C2CCC(c3ccc(Cl)cc3)CC2)C(=O)c2ccccc21 (stereo not shown) [A, 2-[4-(4-chlorophenyl)cyclohexyl]-3-chloro-1,4-naphthoquinone]
% INFECTED (Pneumocystis carinii; 25 mg/kg/day oral): 100%
NO. INFECTED/NO. EXAMINED (Pneumocystis carinii; 25 mg/kg/day oral): 14/14
SCORE 2 (number of rats) (Pneumocystis carinii; 25 mg/kg/day oral): 6
SCORE 3 (number of rats) (Pneumocystis carinii; 25 mg/kg/day oral): 3
SCORE 4 (number of rats) (Pneumocystis carinii; 25 mg/kg/day oral): 0
SCORE 0 (number of rats) (Pneumocystis carinii; 25 mg/kg/day oral): 0
% INFECTED (Pneumocystis carinii; 50 mg/kg/day oral): 100%
NO. INFECTED/NO. EXAMINED (Pneumocystis carinii; 50 mg/kg/day oral): 15/15
SCORE 1 (number of rats) (Pneumocystis carinii; 50 mg/kg/day oral): 8
SCORE 2 (number of rats) (Pneumocystis carinii; 50 mg/kg/day oral): 5
SCORE 3 (number of rats) (Pneumocystis carinii; 50 mg/kg/day oral): 2
SCORE 4 (number of rats) (Pneumocystis carinii; 50 mg/kg/day oral): 0
SCORE 0 (number of rats) (Pneumocystis carinii; 50 mg/kg/day oral): 0
% INFECTED (Pneumocystis carinii; 100 mg/kg/day oral): 73%
NO. INFECTED/NO. EXAMINED (Pneumocystis carinii; 100 mg/kg/day oral): 11/15
SCORE 1 (number of rats) (Pneumocystis carinii; 100 mg/kg/day oral): 6
SCORE 2 (number of rats) (Pneumocystis carinii; 100 mg/kg/day oral): 4
SCORE 3 (number of rats) (Pneumocystis carinii; 100 mg/kg/day oral): 1
SCORE 4 (number of rats) (Pneumocystis carinii; 100 mg/kg/day oral): 0
SCORE 0 (number of rats) (Pneumocystis carinii; 100 mg/kg/day oral): 4
SCORE 1 (number of rats) (Pneumocystis carinii; oral): 5

CC(C)(C)C1CCC(CC2=C(O)C(=O)c3ccccc3C2=O)CC1 (stereo not shown) [C, 2-(4-t-butylcyclohexylmethyl)-3-hydroxy-1,4-naphthoquinone]
% INFECTED (Pneumocystis carinii; 25 mg/kg/day oral): 93%
NO. INFECTED/NO. EXAMINED (Pneumocystis carinii; 25 mg/kg/day oral): 13/14
SCORE 2 (number of rats) (Pneumocystis carinii; 25 mg/kg/day oral): 2
SCORE 3 (number of rats) (Pneumocystis carinii; 25 mg/kg/day oral): 4
SCORE 4 (number of rats) (Pneumocystis carinii; 25 mg/kg/day oral): 4
SCORE 0 (number of rats) (Pneumocystis carinii; 25 mg/kg/day oral): 1
% INFECTED (Pneumocystis carinii; 50 mg/kg/day oral): 100%
NO. INFECTED/NO. EXAMINED (Pneumocystis carinii; 50 mg/kg/day oral): 14/14
SCORE 1 (number of rats) (Pneumocystis carinii; 50 mg/kg/day oral): 2
SCORE 2 (number of rats) (Pneumocystis carinii; 50 mg/kg/day oral): 6
SCORE 3 (number of rats) (Pneumocystis carinii; 50 mg/kg/day oral): 4
SCORE 4 (number of rats) (Pneumocystis carinii; 50 mg/kg/day oral): 2
SCORE 0 (number of rats) (Pneumocystis carinii; 50 mg/kg/day oral): 0
% INFECTED (Pneumocystis carinii; 100 mg/kg/day oral): 92%
NO. INFECTED/NO. EXAMINED (Pneumocystis carinii; 100 mg/kg/day oral): 12/13
SCORE 1 (number of rats) (Pneumocystis carinii; 100 mg/kg/day oral): 4
SCORE 2 (number of rats) (Pneumocystis carinii; 100 mg/kg/day oral): 2
SCORE 3 (number of rats) (Pneumocystis carinii; 100 mg/kg/day oral): 6
SCORE 4 (number of rats) (Pneumocystis carinii; 100 mg/kg/day oral): 0
SCORE 0 (number of rats) (Pneumocystis carinii; 100 mg/kg/day oral): 1
SCORE 1 (number of rats) (Pneumocystis carinii; oral): 3

CC(C)(C)C1CCC(C2=C(O)C(=O)c3ccccc3C2=O)CC1 (stereo not shown) [Compound B, 2-(4-t-butylcyclohexyl)-3-hydroxy-1,4-naphthoquinone]
% INFECTED (Pneumocystis carinii; 25 mg/kg/day oral): 100%
NO. INFECTED/NO. EXAMINED (Pneumocystis carinii; 25 mg/kg/day oral): 15/15
SCORE 2 (number of rats) (Pneumocystis carinii; 25 mg/kg/day oral): 7
SCORE 3 (number of rats) (Pneumocystis carinii; 25 mg/kg/day oral): 1
SCORE 4 (number of rats) (Pneumocystis carinii; 25 mg/kg/day oral): 0
SCORE 0 (number of rats) (Pneumocystis carinii; 25 mg/kg/day oral): 0
% INFECTED (Pneumocystis carinii; 50 mg/kg/day oral): 93%
NO. INFECTED/NO. EXAMINED (Pneumocystis carinii; 50 mg/kg/day oral): 13/14
SCORE 1 (number of rats) (Pneumocystis carinii; 50 mg/kg/day oral): 8
SCORE 2 (number of rats) (Pneumocystis carinii; 50 mg/kg/day oral): 4
SCORE 3 (number of rats) (Pneumocystis carinii; 50 mg/kg/day oral): 1
SCORE 4 (number of rats) (Pneumocystis carinii; 50 mg/kg/day oral): 0
SCORE 0 (number of rats) (Pneumocystis carinii; 50 mg/kg/day oral): 1
% INFECTED (Pneumocystis carinii; 100 mg/kg/day oral): 80%
NO. INFECTED/NO. EXAMINED (Pneumocystis carinii; 100 mg/kg/day oral): 12/15
SCORE 1 (number of rats) (Pneumocystis carinii; 100 mg/kg/day oral): 8
SCORE 2 (number of rats) (Pneumocystis carinii; 100 mg/kg/day oral): 3
SCORE 3 (number of rats) (Pneumocystis carinii; 100 mg/kg/day oral): 0
SCORE 4 (number of rats) (Pneumocystis carinii; 100 mg/kg/day oral): 1
SCORE 0 (number of rats) (Pneumocystis carinii; 100 mg/kg/day oral): 3
SCORE 1 (number of rats) (Pneumocystis carinii; oral): 7

CC(=O)OC1=C([C@H]2CC[C@H](c3ccc(Cl)cc3)CC2)C(=O)c2ccccc2C1=O [Example 5, 2-Acetoxy-3-[trans-4-(4-chlorophenyl)cyclohexyl]-1,4-naphthoquinone]
water-solubility (Water-solubility): improved water-solubility

N=C(N)c1ccc(OCCCCCOc2ccc(C(=N)N)cc2)cc1 [pentamidine]
% effective [1]: 50-70%
incidence of adverse reactions [2]: around 50%

trimethoprim-sulphamethoxazole
% effective [1]: 50-70%
